According to PMC7918733, “Biological Profiling of Semisynthetic C19-Functionalized Ferruginol and Sugiol Analogues” (Antibiotics, 2021):
Like-named read-outs stand apart in the source and are kept apart here.

Columns and labels:
Macrophages J774 = details: cited from earlier work
HeLa (Cervix) [1] = details: cited from earlier work
SW1573 (Lung) [2] = details: cited from earlier work
[3] = system: L. guyanensis promastigotes; set-up: method as in PMID 30840453; details: C18-congeners, cited from earlier work; for IC50: read-out: L. guyanensis IC50 ± SD
T-47D (Breast) [4] = details: cited from earlier work
[5] = target: T1, GABAA receptor subtype (α1β2γ2S) (Homo sapiens, UniProt P14867+P18507+P47870); set-up: expressed in transfected cells; host or cells: Xenopus laevis oocytes; details: cited from earlier work
A549 (Lung) [6] = details: cited from earlier work
HBL-100 (Breast) [7] = details: cited from earlier work
WiDr (Colon) [8] = details: cited from earlier work
HepG2 = test: Cytotoxicity on mammalian cell lines; format: cell-based
Protocol: (§1) Assays were performed by using previously described DNA stain-based assay and methods, including cytotoxicity assays.

RAJI = test: Cytotoxicity on mammalian cell lines; format: cell-based; details: Homo sapiens, read-out: RAJI EC50
Protocol: as §1

HEK293 = test: Cytotoxicity on mammalian cell lines; format: cell-based
Protocol: as §1

BJ = test: Cytotoxicity on mammalian cell lines; format: cell-based; details: Homo sapiens, read-out: BJ EC50
Protocol: as §1

P. falciparum 3D7 strain = test: Antiplasmodial DNA stain-based growth assay; format: cell-based; details: Plasmodium falciparum, 3D7, 72 h, read-out: P. falciparum 3D7 EC50
Protocol: as §1

P. falciparum K1 strain = test: Antiplasmodial DNA stain-based growth assay; format: cell-based; details: Plasmodium falciparum, K1, 72 h, read-out: P. falciparum K1 EC50
Protocol: as §1

[9] = target: T1, GABAA receptor subtype (α1β2γ2S); test: Two-microelectrode voltage-clamp in Xenopus laevis oocytes
Protocol: All molecules were tested at concentrations of 10, 100 μM and compared with dehydroabietic acid (DHA) (3) as a reference [16].

[10] = system: L. amazonensis promastigotes; set-up: method as in PMID 30840453; details: C18-congeners, read-out: L. amazonensis IC50 ± SD; cited from earlier work
[11] = system: L. donovani promastigotes; details: C18-congeners, read-out: L. donovani IC50 ± SD; cited from earlier work
[12] = system: L. infantum promastigotes; set-up: method as in PMID 30840453; details: C18-congeners, read-out: L. infantum IC50 ± SD; cited from earlier work
WiDr (Colon) [13] = test: Antiproliferative SRB assay; format: cell-based, human; details: mean ± SD of at least two experiments
Protocol: (§2) Cells, cultures and the activity test of abietane analogs followed reported methods. The SRB assay was performed as previously described, and the antiproliferative activity was given as GI50 values, which were calculated according to NCI formulas.

SW1573 (Lung) [14] = test: Antiproliferative SRB assay; format: cell-based, human
Protocol: as §2

A549 (Lung) [15] = test: Antiproliferative SRB assay; format: cell-based, human
Protocol: as §2

HBL-100 (Breast) [16] = test: Antiproliferative SRB assay; format: cell-based; details: Homo sapiens, mean ± SD of at least two experiments
Protocol: as §2

T-47D (Breast) [17] = test: Antiproliferative SRB assay; format: cell-based; details: Homo sapiens, T47D, mean ± SD of at least two experiments
Protocol: as §2

HeLa (Cervix) [18] = test: Antiproliferative SRB assay; format: cell-based; details: Homo sapiens, mean ± SD of at least two experiments
Protocol: as §2

[19] = read-out: Macrophages J774 CC50, C18-congeners
[20] = mean ± SD of at least two experiments

T1 sequence (P14867 28-456): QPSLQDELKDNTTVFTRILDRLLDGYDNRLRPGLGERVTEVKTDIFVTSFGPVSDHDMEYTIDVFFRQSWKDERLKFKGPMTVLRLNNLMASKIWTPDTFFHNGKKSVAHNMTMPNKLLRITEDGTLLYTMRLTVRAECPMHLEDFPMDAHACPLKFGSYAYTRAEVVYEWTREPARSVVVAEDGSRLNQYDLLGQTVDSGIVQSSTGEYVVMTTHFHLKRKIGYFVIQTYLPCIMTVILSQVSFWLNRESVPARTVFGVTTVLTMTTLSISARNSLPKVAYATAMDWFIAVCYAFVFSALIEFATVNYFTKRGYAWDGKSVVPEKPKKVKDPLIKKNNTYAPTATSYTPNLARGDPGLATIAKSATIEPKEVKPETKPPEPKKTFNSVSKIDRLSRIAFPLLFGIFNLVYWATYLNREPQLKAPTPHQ
T1 sequence (P47870 26-512): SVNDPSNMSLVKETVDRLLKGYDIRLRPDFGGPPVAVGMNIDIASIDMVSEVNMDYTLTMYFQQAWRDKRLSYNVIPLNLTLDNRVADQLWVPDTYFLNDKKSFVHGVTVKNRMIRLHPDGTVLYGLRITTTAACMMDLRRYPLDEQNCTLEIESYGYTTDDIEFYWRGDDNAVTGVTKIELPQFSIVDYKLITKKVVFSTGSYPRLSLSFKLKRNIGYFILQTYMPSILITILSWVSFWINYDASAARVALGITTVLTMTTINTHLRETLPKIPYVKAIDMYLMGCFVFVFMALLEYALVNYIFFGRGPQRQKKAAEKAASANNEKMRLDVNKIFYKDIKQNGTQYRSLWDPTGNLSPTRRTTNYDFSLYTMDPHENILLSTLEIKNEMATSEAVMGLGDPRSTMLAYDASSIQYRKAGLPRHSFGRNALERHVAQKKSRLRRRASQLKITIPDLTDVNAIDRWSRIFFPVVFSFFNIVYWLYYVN
T1 sequence (P18507 40-467 isoform P18507-1 limits assumed): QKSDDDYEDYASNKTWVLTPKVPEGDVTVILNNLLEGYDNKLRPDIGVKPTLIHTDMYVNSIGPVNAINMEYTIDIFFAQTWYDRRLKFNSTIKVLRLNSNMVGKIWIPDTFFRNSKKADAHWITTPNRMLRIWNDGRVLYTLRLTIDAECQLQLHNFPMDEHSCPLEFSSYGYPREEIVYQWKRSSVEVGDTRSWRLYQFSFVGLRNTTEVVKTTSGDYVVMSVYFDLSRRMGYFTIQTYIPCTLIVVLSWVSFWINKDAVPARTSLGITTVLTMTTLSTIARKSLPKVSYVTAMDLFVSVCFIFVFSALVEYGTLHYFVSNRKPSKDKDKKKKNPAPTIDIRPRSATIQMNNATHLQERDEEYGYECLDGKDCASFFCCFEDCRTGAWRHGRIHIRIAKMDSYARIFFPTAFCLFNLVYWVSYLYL

SMILES | GI50 (HeLa (Cervix) [1]; C18-congeners) [µM] | GI50 (SW1573 (Lung) [2]; C18-congeners) [µM] | GI50 (T-47D (Breast) [4]; C18-congeners) [µM] | IGABA Potentiation of 10 µM (%) ([5]; C18-congeners) | IGABA Potentiation of 100 µM (%) ([5]; C18-congeners) | GI50 (A549 (Lung) [6]; C18-congeners) [µM] | GI50 (HBL-100 (Breast) [7]; C18-congeners) [µM] | GI50 (WiDr (Colon) [8]; C18-congeners) [µM] | CC50 (Macrophages J774; [19]) [µM] | IC50 [10] [µM] | IC50 [11] [µM] | IC50 [3] [µM] | IC50 [12] [µM] | also measured
CC(C)c1cc2c(cc1O)C1(C)CCCC(C)(C(=O)O)C1CC2=O (single isomer, unassigned; (+)) [Compound 8b, (+)-liquiditerpenoic acid A] | 85 ± 21 | > 100 | > 100 | −2.2 ± 4.4 | −21.1 ± 7.1 | > 100 | > 100 | > 100 |  |  |  |  |  | CC50 (Macrophages J774): 219 ± 15 µM; L. guyanensis IC50 ± SD [3]: inactive
CCN(CC)CCCC(C)Nc1ccnc2cc(Cl)ccc12 (stereo not shown) [Chloroquine, reference compound] |  |  |  |  |  |  |  |  |  |  |  |  |  | EC50 (HepG2; Homo sapiens, HepG2, read-out: HepG2 EC50): > 25 µM; EC50 (RAJI): > 25000 nM; EC50 (HEK293; Homo sapiens, HEK293, read-out: HEK293 EC50): > 25000 nM; EC50 (BJ): > 25000 nM; EC50 (P. falciparum 3D7 strain): 23 nM; EC50 (P. falciparum K1 strain): 690 nM
CC(C)c1cc2c(cc1O)[C@@]1(C)CCCC(C)(C)[C@@H]1CC2=O [Compound 2, sugiol] |  |  |  |  |  |  |  |  |  |  |  |  |  | GI50 (A549 (Lung) [6]): 79.8 ± 2.2 µM
CC(C)c1ccc2c(c1)CC[C@H]1[C@](C)(C(=O)O)CCC[C@]21C [Compound 3, dehydroabietic acid, reference compound] |  |  |  |  |  |  |  |  |  |  |  |  |  | activation at 10 µM ([9]; read-out: IGABA Potentiation of 10 µM (%)): 192 ± 10%; activation at 100 µM ([9]; read-out: IGABA Potentiation of 100 µM (%)): 789 ± 82%
CC(C)c1ccc2c(c1)CC[C@H]1[C@@](C)(C(=O)O)CCC[C@]21C [Compound 6, callitrisic acid] |  |  |  |  |  |  |  |  |  |  |  |  |  | IGABA Potentiation of 10 µM (%) [5]: 14 ± 5%; IGABA Potentiation of 100 µM (%) [5]: 269 ± 24%
COC(=O)[C@@]1(C)CCC[C@]2(C)c3ccc(C(C)C)cc3CC[C@@H]12 [Compound 7, methyl callitrisate] |  |  |  |  |  |  |  |  |  |  |  |  |  | GI50 (HeLa (Cervix) [1]): 16 ± 2.5 µM; GI50 (SW1573 (Lung) [2]): 17 ± 2.2 µM; GI50 (T-47D (Breast) [4]): 8.8 ± 2.7 µM; GI50 (A549 (Lung) [6]): 10 ± 1.9 µM; GI50 (HBL-100 (Breast) [7]): 14 ± 5 µM; GI50 (WiDr (Colon) [8]): 6.4 ± 2.1 µM
COC(=O)[C@]1(C)CCC[C@]2(C)c3cc(OC(C)=O)c(C(C)C)cc3CC[C@@H]12 [Compound 10b] | 4.4 ± 1.1 | 12 ± 3.2 | 14 ± 2.9 | 5.1 ± 2.1 | 26.3 ± 8.9 | 11 ± 1.8 | 15 ± 3.9 | 16 ± 2.5 | 26.5 ± 2.7 | 3.2 ± 0.3 | 8.1 ± 0.7 | 5.5 ± 0.7 | 1.3 ± 0.1 | 
COC(=O)[C@]1(C)CCC[C@]2(C)c3cc(OC(C)=O)c(C(C)C)cc3C(=O)C[C@@H]12 [Compound 11b] | 13 ± 2.3 | 17 ± 1.9 | 20 ± 2.9 | −1.0 ± 2.8 | 46.7 ± 8.3 | 14 ± 0.4 | 16 ± 1.5 | 19 ± 1.7 | 17.8 ± 2.8 | 0.65 ± 0.03 | 4.4 ± 0.5 | 1.3 ± 0.1 | 0.7 ± 0.2 | 
COC(=O)[C@]1(C)CCC[C@]2(C)c3cc(O)c(C(C)C)cc3CC[C@@H]12 [Compound 12b] | 5.8 ± 0.5 | 11 ± 2 | 19 ± 3.8 | 23.7 ± 9.6 | 378.0 ± 65.6 | 9.4 ± 2.6 | 9.7 ± 2.7 | 23 ± 4.4 | 34.2 ± 3.1 | 3.9 ± 0.1 | 9.21 ± 0.06 | 5.9 ± 1.1 | 5 ± 0.3 | 
CC(C)c1cc2c(cc1O)[C@@]1(C)CCC[C@@](C)(C(=O)O)C1CC2 (stereo partly shown) [Compound 13b, 12-hydroxydehydroabietic acid] | 96 ± 5.5 | 93 ± 9.3 | > 100 | 8.9 ± 2.3 | 12.1 ± 2.9 | 70 ± 6.3 | > 100 | > 100 | 85.8 ± 28.8 | 54.1 ± 6.5 | 58.1 ± 0.7 | 71.4 ± 1.5 | 43.6 ± 3.4 | 
CC(C)c1cc2c(cc1O)[C@@]1(C)CCC[C@@](C)(CO)[C@@H]1CC2 [Compound 14b] | 12 ± 1.8 | 15 ± 2.8 | 16 ± 0.9 | 29.3 ± 10.6 | 154.1 ± 34.2 | 12 ± 1.9 | 16 ± 2 | 17 ± 1.3 | 23.4 ± 4.6 | 7.7 ± 0.8 | 13.9 ± 0.1 | 12.5 ± 2.2 | 0.7 ± 0.1 | 
CC(C)c1cc2c(cc1O)[C@@]1(C)CCC[C@@](C)(CO)[C@@H]1CC2=O [Compound 15b] | 16 ± 2.4 | 23 ± 0.7 | 20 ± 2.7 | 4.5 ± 5.8 | −30.3 ± 9.5 | 19 ± 3.3 | 16 ± 2 | 19 ± 2.1 | 14.4 ± 2.8 | 10.2 ± 0.6 | 19.7 ± 0.4 | 16.5 ± 0.7 | 9.7 ± 0.8 | 
COC(=O)[C@]1(C)CCC[C@]2(C)c3cc(O)c(C(C)C)cc3C(=O)C[C@@H]12 [Compound 16b] | > 100 | > 100 | > 100 | 37.4 ± 12.7 | 242.4 ± 46.0 | > 100 | > 100 | > 100 | 154 ± 49.3 |  |  |  |  | 
CC(C)=CCC[C@]1(C)C=Cc2c(O)c3c(c(CC=C(C)C)c2O1)O[C@]12C(=C[C@@H]4C[C@H]1C(C)(C)O[C@@]2(C/C=C(/C)C(=O)O)C4=O)C3=O [Gambogic acid, reference compound] |  |  |  |  |  |  |  |  |  |  |  |  |  | EC50 (HepG2; Homo sapiens, HepG2; read-out: HepG2 EC50): > 25 µM; EC50 (RAJI): 240 nM; EC50 (HEK293; Homo sapiens, HEK293; read-out: HEK293 EC50): 210 nM; EC50 (BJ): 210 nM
N.N.[Cl][Pt][Cl] [cisplatin, reference compound] |  |  |  |  |  |  |  |  |  |  |  |  |  | GI50 (WiDr (Colon) [13]): 23 ± 4.3 µM; GI50 (SW1573 (Lung) [14]; [20]): 2.7 ± 0.4 µM; GI50 (A549 (Lung) [15]; [20]): 4.9 ± 0.2 µM
COc1cc([C@@H]2c3cc4c(cc3[C@@H](O[C@@H]3O[C@@H]5CO[C@@H](C)O[C@H]5[C@H](O)[C@H]3O)[C@H]3COC(=O)[C@H]23)OCO4)cc(OC)c1O [etoposide, reference compound] |  |  |  |  |  |  |  |  |  |  |  |  |  | GI50 (WiDr (Colon) [13]; Homo sapiens, WiDr): 23 ± 3.1 µM; GI50 (SW1573 (Lung) [14]; Homo sapiens, SW1573, mean ± SD of at least two experiments): 15 ± 1.5 µM; GI50 (A549 (Lung) [15]; Homo sapiens, A549, mean ± SD of at least two experiments): 1.5 ± 0.3 µM; GI50 (HBL-100 (Breast) [16]): 1400 ± 100 nM; GI50 (T-47D (Breast) [17]): 22 ± 5.5 µM; GI50 (HeLa (Cervix) [18]): 3.3 ± 1.6 µM
